The results in this text go back to patent publication US20230265098A1, “ALKYNE QUINAZOLINE DERIVATIVES AS INHIBITORS OF ERBB2” (EnLiven Therapeutics, Inc., priority 2020, published 2023).

pIC50: −log10 of the molar value.

The target of test [1] is T1, Ba/F3 ERBB2 A775_G776insYVMA (Homo sapiens, UniProt P04626, DUP772-775, cells depend on it).
T1 construct: Ba/F3 cell lines were engineered to express human ERBB2 or EGFR kinases, rendering the cells IL-3 independent
Kind of test: Cell viability assay (CellTiter Glo). Format: cell-based, mouse. To be noted: 72 hours; 3000 cells per well, 96-well plates (Tables B3-B4); read-out: Cell viability IC50, nM, Ba/F3 ERBB2 A775_G776insYVMA. In outline:
(§1)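 Murine Ba/F3 cells made IL-3-independent by retroviral human EGFR or ERBB2 were seeded at 3000 or 300 cells per well and exposed to serially diluted compound (DMSO ≤0.1%) for 72 hours at 37° C, 5% CO2. CellTiter Glo luminescence was normalised to DMSO and media-only controls and fitted to a sigmoidal dose-response.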
For orientation: In ATP-based viability assays light output follows the ATP content of the culture.

A further test has as its target T2, Ba/F3 ERBB2 wt (Homo sapiens, UniProt P04626).
T2 construct: Ba/F3 cell lines were engineered to express human ERBB2 or EGFR kinases, rendering the cells IL-3 independent
In words: Cell viability assay (CellTiter Glo). It is filed as cell-based, mouse. To be noted: 72 hours; 3000 cells per well, 96-well plates; read-out: Cell viability IC50, nM, Ba/F3 ERBB2 wt. In outline:
as §1

A further test deals with T3, Ba/F3 ERBB2-G776VC (Homo sapiens, UniProt P04626, DELINS776-776VC, cells depend on it).
T3 construct: Ba/F3 cell lines were engineered to express human ERBB2 or EGFR kinases, rendering the cells IL-3 independent
Kind of test: Cell viability assay (CellTiter Glo). It is filed as cell-based, mouse. Particulars: 72 hours; 3000 cells per well, 96-well plates; read-out: Cell viability IC50, nM, Ba/F3 ERBB2-G776VC. In outline:
as §1

The next test deals with T4, Ba/F3 ERBB2-L755S (Homo sapiens, UniProt P04626, L755S, cells depend on it).
T4 construct: Ba/F3 cell lines were engineered to express human ERBB2 or EGFR kinases, rendering the cells IL-3 independent
T4 sequence (P04626 whole entry L755S): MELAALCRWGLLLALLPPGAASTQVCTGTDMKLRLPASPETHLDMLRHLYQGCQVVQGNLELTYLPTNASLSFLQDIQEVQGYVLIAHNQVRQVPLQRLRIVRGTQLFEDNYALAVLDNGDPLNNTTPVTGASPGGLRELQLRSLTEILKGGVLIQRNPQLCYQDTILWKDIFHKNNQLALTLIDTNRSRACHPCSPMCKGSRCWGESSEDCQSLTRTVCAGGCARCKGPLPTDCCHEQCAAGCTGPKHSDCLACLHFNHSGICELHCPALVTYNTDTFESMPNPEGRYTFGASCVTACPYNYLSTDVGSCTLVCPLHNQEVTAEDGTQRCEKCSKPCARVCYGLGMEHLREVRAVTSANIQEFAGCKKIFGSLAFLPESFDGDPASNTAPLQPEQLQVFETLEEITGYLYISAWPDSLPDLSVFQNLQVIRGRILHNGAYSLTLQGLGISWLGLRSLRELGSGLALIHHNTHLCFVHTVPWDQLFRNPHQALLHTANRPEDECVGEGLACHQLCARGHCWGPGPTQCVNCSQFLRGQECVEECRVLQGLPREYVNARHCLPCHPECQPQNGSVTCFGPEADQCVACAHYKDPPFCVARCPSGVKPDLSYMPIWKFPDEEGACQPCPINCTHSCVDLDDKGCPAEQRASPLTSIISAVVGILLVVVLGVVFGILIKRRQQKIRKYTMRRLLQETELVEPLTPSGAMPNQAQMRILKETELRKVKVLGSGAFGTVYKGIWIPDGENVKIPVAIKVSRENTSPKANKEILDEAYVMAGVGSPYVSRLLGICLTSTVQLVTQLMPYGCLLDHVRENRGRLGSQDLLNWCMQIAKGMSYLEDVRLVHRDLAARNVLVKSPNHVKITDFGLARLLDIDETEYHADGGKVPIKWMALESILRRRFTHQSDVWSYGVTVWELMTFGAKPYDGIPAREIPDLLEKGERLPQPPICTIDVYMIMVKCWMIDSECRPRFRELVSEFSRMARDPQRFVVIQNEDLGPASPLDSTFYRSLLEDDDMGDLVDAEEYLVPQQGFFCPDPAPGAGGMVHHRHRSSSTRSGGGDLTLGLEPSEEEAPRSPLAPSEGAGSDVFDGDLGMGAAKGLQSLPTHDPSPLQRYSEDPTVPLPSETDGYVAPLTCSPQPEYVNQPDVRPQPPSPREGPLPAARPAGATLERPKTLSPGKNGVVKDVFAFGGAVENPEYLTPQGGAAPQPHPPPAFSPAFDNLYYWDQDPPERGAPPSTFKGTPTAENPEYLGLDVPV
In words: Cell viability assay (CellTiter Glo). Format: cell-based, mouse. To be noted: 72 hours; 3000 cells per well, 96-well plates; read-out: Cell viability IC50, nM, Ba/F3 ERBB2-L755S. Put shortly: as §1

The target in another test is T5, Ba/F3 ERBB2-L869R (Homo sapiens, UniProt P04626, L869R, cells depend on it).
T5 construct: Ba/F3 cell lines were engineered to express human ERBB2 or EGFR kinases, rendering the cells IL-3 independent
Kind of test: Cell viability assay (CellTiter Glo). It is filed as cell-based, mouse. Particulars: 72 hours; 3000 cells per well, 96-well plates; read-out: Cell viability IC50, nM, Ba/F3 ERBB2-L869R. In outline:
as §1

Another test deals with T6, Ba/F3 ERBB2-T798M (Homo sapiens, UniProt P04626, T798M, cells depend on it).
T6 construct: Ba/F3 cell lines were engineered to express human ERBB2 or EGFR kinases, rendering the cells IL-3 independent
Kind of test: Cell viability assay (CellTiter Glo). It is filed as cell-based, mouse. To be noted: 72 hours; 3000 cells per well, 96-well plates; read-out: Cell viability IC50, nM, Ba/F3 ERBB2-T798M. Put shortly:
as §1

The next test deals with T7, Ba/F3 ERBB2-V777L (Homo sapiens, UniProt P04626, V777L, cells depend on it).
T7 construct: Ba/F3 cell lines were engineered to express human ERBB2 or EGFR kinases, rendering the cells IL-3 independent
T7 sequence (P04626 whole entry V777L): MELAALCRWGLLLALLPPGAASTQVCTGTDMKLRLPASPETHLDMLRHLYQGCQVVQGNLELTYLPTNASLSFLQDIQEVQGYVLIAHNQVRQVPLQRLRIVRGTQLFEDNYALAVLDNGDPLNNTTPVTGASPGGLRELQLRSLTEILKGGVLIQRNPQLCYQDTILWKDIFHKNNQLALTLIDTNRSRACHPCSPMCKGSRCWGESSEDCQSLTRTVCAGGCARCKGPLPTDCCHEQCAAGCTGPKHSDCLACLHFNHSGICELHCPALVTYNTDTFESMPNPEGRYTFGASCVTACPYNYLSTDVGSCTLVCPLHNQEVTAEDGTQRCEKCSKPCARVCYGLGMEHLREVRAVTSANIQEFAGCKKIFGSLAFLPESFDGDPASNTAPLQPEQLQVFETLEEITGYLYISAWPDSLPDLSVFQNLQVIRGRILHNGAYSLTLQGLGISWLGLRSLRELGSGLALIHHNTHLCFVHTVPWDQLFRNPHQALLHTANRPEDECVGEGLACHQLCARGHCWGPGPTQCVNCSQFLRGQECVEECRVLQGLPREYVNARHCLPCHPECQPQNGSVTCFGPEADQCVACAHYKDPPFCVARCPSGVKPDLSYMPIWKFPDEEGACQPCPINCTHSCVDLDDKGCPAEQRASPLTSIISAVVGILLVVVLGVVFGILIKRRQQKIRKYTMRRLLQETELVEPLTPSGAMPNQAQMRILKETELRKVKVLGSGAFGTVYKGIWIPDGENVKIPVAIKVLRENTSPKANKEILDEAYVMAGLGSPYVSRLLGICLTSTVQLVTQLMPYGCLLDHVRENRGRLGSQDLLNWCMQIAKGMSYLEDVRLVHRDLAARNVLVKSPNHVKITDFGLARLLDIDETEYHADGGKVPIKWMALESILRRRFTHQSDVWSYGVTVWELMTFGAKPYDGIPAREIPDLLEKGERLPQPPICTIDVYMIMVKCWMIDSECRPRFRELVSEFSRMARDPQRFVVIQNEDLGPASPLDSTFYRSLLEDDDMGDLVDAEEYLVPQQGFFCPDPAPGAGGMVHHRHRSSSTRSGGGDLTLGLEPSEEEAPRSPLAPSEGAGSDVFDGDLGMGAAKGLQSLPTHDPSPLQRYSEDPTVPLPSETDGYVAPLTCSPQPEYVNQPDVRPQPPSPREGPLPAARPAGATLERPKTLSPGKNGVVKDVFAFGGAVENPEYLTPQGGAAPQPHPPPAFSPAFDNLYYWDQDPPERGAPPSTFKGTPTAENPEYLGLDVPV
Kind of test: Cell viability assay (CellTiter Glo). Format: cell-based, mouse. To be noted: 72 hours; 3000 cells per well, 96-well plates; read-out: Cell viability IC50, nM, Ba/F3 ERBB2-V777L. In outline:
as §1

Test [2] addresses T8, Ba/F3 ERBB2-V777_G778insGC (Homo sapiens, UniProt P04626, INS778CG, cells depend on it).
T8 construct: Ba/F3 cell lines were engineered to express human ERBB2 or EGFR kinases, rendering the cells IL-3 independent
In words: Cell viability assay (CellTiter Glo). Format: cell-based, mouse. To be noted: 72 hours; 3000 cells per well, 96-well plates; read-out: Cell viability IC50, nM, Ba/F3 ERBB2-V777_G778insGC. In outline: as §1

Test [3] deals with T9, phosphorylated ERBB2 (pERBB2) (Homo sapiens, UniProt P04626).
T9 construct: endogenous in cells; host or cells: BT-474
Kind of test: Detection of phosphorylated ERBB2 (pERBB2) by ELISA in BT-474 cells. It is filed as cell-based. To be noted: four hours incubation with compound, OD 450 nm. In outline: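 BT-474 cells were treated for 4 h at 37 °C with four-fold compound dilutions from 10 μM to 0.01 nM final, then lysed. Phospho-ERBB2 in the lysates was measured by ELISA with TMB read-out at 450 nm. Relative activity was normalised between cell-free wells and 0.1% DMSO-treated cells.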
(An ELISA detects its analyte on a solid surface through an enzyme-linked reagent.)

By pIC50 is commonly meant the negative decadic logarithm of the IC50, by convention in mol/L.

T2 sequence (P04626 whole entry, change not shown): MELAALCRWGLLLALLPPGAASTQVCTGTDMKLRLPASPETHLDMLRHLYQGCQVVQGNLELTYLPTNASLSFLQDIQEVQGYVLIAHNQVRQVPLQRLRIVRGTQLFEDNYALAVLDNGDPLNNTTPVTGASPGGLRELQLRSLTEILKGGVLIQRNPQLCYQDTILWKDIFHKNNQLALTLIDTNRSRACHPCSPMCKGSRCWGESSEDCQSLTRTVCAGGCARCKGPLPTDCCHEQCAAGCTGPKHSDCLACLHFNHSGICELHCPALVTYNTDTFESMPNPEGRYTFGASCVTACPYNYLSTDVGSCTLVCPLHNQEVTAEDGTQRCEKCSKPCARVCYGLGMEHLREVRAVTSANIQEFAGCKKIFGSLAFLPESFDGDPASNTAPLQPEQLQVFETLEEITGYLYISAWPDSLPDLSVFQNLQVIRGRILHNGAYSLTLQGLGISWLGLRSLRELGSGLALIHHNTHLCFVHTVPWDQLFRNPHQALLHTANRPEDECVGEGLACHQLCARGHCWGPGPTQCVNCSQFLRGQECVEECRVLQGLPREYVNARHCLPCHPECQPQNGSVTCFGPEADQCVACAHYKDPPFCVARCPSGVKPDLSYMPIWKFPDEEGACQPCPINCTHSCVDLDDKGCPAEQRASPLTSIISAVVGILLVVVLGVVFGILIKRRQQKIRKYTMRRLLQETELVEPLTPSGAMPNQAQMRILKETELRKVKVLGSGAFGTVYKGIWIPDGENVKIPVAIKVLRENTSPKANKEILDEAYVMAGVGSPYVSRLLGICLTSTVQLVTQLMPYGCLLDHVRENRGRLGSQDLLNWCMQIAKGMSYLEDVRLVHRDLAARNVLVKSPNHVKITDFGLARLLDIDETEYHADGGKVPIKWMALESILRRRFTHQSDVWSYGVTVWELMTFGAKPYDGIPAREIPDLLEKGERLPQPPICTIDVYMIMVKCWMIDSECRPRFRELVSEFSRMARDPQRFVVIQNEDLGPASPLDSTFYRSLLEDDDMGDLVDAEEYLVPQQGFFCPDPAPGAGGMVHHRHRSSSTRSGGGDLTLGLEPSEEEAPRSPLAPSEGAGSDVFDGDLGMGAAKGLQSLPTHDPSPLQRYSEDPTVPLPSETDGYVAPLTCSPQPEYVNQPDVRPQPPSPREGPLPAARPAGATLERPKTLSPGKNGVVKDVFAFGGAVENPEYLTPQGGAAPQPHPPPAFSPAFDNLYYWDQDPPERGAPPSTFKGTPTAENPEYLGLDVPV
T1 sequence (P04626 with tags, fused parts or gaps DUP772-775): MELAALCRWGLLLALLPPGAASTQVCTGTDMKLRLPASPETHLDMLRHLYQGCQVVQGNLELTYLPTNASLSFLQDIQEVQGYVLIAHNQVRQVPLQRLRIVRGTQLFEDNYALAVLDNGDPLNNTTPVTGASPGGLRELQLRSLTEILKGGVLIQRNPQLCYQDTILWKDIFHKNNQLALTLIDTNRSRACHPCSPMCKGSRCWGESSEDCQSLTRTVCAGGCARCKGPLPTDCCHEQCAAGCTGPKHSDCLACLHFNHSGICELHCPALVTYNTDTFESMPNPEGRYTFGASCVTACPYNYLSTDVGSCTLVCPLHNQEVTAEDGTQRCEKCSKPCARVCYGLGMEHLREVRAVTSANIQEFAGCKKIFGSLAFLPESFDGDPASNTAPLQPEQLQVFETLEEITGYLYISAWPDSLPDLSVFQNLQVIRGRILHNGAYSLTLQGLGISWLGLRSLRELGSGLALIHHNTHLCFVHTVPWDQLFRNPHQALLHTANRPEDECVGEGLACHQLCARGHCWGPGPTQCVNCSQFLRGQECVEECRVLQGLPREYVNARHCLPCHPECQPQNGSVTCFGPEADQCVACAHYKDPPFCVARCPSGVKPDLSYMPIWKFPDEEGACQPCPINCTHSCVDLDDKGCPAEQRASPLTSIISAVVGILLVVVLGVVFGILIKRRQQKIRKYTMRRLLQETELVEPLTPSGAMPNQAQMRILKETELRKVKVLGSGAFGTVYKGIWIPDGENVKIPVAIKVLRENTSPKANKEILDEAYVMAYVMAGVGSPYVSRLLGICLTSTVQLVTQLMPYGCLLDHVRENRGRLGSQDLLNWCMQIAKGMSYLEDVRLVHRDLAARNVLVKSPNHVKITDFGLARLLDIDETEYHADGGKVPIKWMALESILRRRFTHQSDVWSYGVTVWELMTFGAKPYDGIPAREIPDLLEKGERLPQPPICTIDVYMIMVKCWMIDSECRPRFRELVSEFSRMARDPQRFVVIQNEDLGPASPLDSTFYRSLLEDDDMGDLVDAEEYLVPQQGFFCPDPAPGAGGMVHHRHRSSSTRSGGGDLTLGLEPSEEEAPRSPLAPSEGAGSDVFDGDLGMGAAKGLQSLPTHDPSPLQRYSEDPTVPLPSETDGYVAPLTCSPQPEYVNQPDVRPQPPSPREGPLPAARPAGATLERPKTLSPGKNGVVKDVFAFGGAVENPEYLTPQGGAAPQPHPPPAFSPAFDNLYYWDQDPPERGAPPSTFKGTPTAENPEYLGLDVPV

Turning to `CC#CC(=O)Nc1cc2c(Nc3ccc(Oc4ccn5ncnc5c4)c(C)c3)ncnc2cc1OCCN(C)C` [Compound 150, N-[7-[2-(dimethylamino)ethoxy]-4-[(3-methyl-4-[[1,2,4]triazolo[1,5-a]pyridin-7-yloxy]phenyl)amino]quinazolin-6-yl]but-2-ynamide], the GI50 was determined as 8.42 nM in test [1]; 2.12 nM on Ba/F3 ERBB2 wt; 13.6 nM at Ba/F3 ERBB2-G776VC; 11.4 nM at Ba/F3 ERBB2-L755S; 4.31 nM at Ba/F3 ERBB2-L869R; 56.9 nM on Ba/F3 ERBB2-T798M. Further, the GI50 at Ba/F3 ERBB2-V777L amounted to 1.73 nM; in test [2], 3.01 nM. Further, in test [3], the pIC50 was 8.15.

As for `CC#CC(=O)Nc1ccc2ncnc(Nc3ccc(Oc4ccn5ncnc5c4)c(C)c3)c2c1` [Compound 1, N-[4-[(3-methyl-4-[[1,2,4]triazolo[1,5-a]pyridin-7-yloxy]phenyl)amino]quinazolin-6-yl]but-2-ynamide], the GI50 was 4.4 nM in [1]; 1.5 nM on Ba/F3 ERBB2 wt; 2.6 nM at Ba/F3 ERBB2-G776VC; about 1 nM on Ba/F3 ERBB2-L755S; under 1 nM at Ba/F3 ERBB2-L869R; 15 nM on Ba/F3 ERBB2-T798M. The GI50 (at Ba/F3 ERBB2-V777L; in test [2]) was under 1 nM each time. In test [3], the pIC50 was 7.99.

Consider `Cc1cc(Nc2ncnc3ccc(NC4=NC(C)(C)CO4)cc23)ccc1Oc1ccn2ncnc2c1` [Tucatinib, tucatinib, reference compound], for which the GI50 was found to be 356 nM in test [1]; 26.5 nM at Ba/F3 ERBB2 wt; 193 nM at Ba/F3 ERBB2-G776VC; 228 nM at Ba/F3 ERBB2-L755S; 63.5 nM at Ba/F3 ERBB2-L869R; 1370 nM on Ba/F3 ERBB2-T798M. Besides, the results for the GI50 (at Ba/F3 ERBB2-V777L; in test [2]) were 11 nM and 12.5 nM, respectively. In addition, the pIC50 in test [3] was 7.64.
